Experimental data published in US20230405095A1, “DOSING REGIMEN” (VIIV HEALTHCARE UK (NO. 7) LIMITED, priority 2022, published 2023).
Values joined by “and” are separate entries in the source; they are usually repeats but may differ in a detail not shown here. Identical values can stand only once. Like-named read-outs stand apart in the source and are kept apart here.

Key:
[1] = Blood pharmacokinetics of cabotegravir after a single subcutaneous administration with or without rHuPH20; assay type: in vivo, male Sprague-Dawley rats; conditions: for Tmax / half-life / AUC(0-t) / Cmax / AUC (0-tlast) / T½: rat blood; for half-life: read-out: T½ (converted); for AUC(0-t): read-out: AUC (0-tlast)
Protocol: Cabotegravir (free acid) was supplied by the Department of Pharmaceutical Development, at GSK, Upper Providence (UP), as a wet bead milled suspension (WBM), of nominal 200 mg/mL active concentration, white to slightly pink in appearance to be used for subcutaneous (SC) injection. The test article was milled and supplied in an aqueous vehicle (see Table 1). The test article was filled into vials, stoppered, sealed and subjected to gamma sterilization at between 25-45 kGy.
Twelve male Sprague-Dawley rats (body weight approximately 275-300 grams upon arrival), from Charles River Laboratories, Raleigh, were used in this study. Rats were randomized by number one day prior to the start of study. All rats were euthanized at study end.
Dose volumes administered for cabotegravir (target concentration of 200 mg/mL) were based on animal weights obtained just prior to dosing to achieve a target dosage of 10 mg/kg (groups 1 and 2) and 5 mg/kg (groups 3 and 4). Test article was resuspended prior to dosing by inverting supplied vials and checking vial bottom for non-resuspended sediments. Syringes used to dose cabotegravir were weighed pre- and post-dose to determine exact amount of cabotegravir administered. Rats were lightly anesthetized under isoflurane for a short period to perform the dosing procedure. Injection sites were shaved immediately prior to dosing, wiped with alcohol and allowed to dry. For groups 1 and 3, the cabotegravir doses were injected subcutaneously into the lower scapular region. After removing the dosing needle, minimal, but adequate, pressure was applied to the skin at the injection site (i.e., to keep the site still and closed) for approximately 1 minute to enable coagulation and sealing of the puncture. The sites were observed immediately after the needle was withdrawn to note any dose leakage. For groups 2 and 4, the rHuPH20 was injected subcutaneously first (approximately 3000 units in 100 μL, these syringes were not weighed), immediately followed by the Cabotegravir injection with the goal of injecting both formulations in the same subcutaneous space of the lower scapular region. After removing the second dosing needle, minimal, but adequate, pressure was applied to the skin at the injection site (i.e., to keep the site still and closed) for approximately 1 minute to enable coagulation and sealing of the puncture. Any dose leakage was noted. Injection sites were monitored daily for the first week of study and then weekly for the remainder of the study and observations recorded. Body weights were recorded on day 0 and then weekly for the remainder of the study.
Blood samples were collected via lateral vein or tail tip amputation. On study Day 0, following subcutaneous injection, blood samples (approximately 75 μL/rat/time point) were collected into 500 μL K2 EDTA tubes at 1, 2, 4 and 8 hr. Samples were then collected at 24 hrs., 48 hrs., and on Days 3, 7, 14, 21, 28, 56 and 84. Exactly 75 μL of whole blood was pipetted into a new tube containing 75 μL of sterile water. Samples were vortexed and placed on dry ice immediately. Samples were stored at −80° C. until transferred to Yinghe Li (DMPK, US) for analysis.
Rat blood: water samples were analyzed for cabotegravir using an analytical method based on protein precipitation, followed by UPLC/MS/MS analysis. The lower limit of quantification (LLQ) for cabotegravir was 5 ng/mL using a 150 μL aliquot of rat blood: water with a higher limit of quantification (HLQ) of 20000 ng/mL. Analyst software version 1.7.1 was used to acquire and process LC-MS/MS data. The applicable analytical runs met all predefined run acceptance criteria.
Pharmacokinetic analysis of cabotegravir blood concentration-time data was performed by a non-compartmental method using Phoenix WinNonlin®, Version 8.1 software. All computations utilized nominal sampling times and doses for the study. […]

[2] = Clinical PK of single SC injection of CAB200 with rHuPH20 (Studies 212482 and 218012); assay type: in vivo, healthy adult participants; conditions: SC with rHuPH20, dose level of 3200 mg or lower
Protocol: In a Phase 1 open-label, dose-escalation study to investigate the safety, tolerability and pharmacokinetics of single-dose administration of various CAB formulations with and without rHuPH20 in healthy adult participants, CAB200 at doses of 800, 1600 and 3200 mg have been administered with rHuPH20 (10,000 IU). rHuPH20 and CAB formulations were administered sequentially; subcutaneous (SC) administration by a health care provider (HCP) is via a butterfly needle and slow SC infusion in the abdominal SC tissue using a syringe pump.
A summary of CAB200 LA SC PK data with rHuPH20 is set forth in the Table below. • In Study 212482, single SC injection of CAB200 (2 mL/400 mg) with rHuPH20 (5000 units) was studied in Cohort 4 h. • In Study 218012, single SC injection of CAB200 with rHuPH20 was studied in cohorts A1 (4 mL/800 mg CAB200), A2 (8 mL/1600 mg CAB200) and A3 (16 mL/3200 mg CAB200). The dose of rHuPH20 was 10000 units. In both studies, rHuPH20 was injected first, followed by SC injection of CAB200.

[3] = CAB Cmax safety threshold; assay type: in vivo; conditions: CAB plasma concentration; read-out: safety threshold: Cmax not associated with any toxicity
HIV-1 strains = conditions: integrase strand transfer inhibitor; broad range of HIV-1 strains; cited from earlier work
[4] = male, Sprague-Dawley, rat, whole blood, sc, 5 mg/kg, single SC 5 mg/kg, with rHuPH20 approx. 3000 units SC (Group 4), mean ± SD
[5] = male, Sprague-Dawley, rat, whole blood, sc, 5 mg/kg, single SC 5 mg/kg, without rHuPH20 (Group 3), individual animals
[6] = male, Sprague-Dawley, rat, whole blood, sc, 5 mg/kg, single SC 5 mg/kg, without rHuPH20 (Group 3), mean ± SD
[7] = male, Sprague-Dawley, rat, whole blood, sc, 10 mg/kg, single SC 10 mg/kg, with rHuPH20 approx. 3000 units SC (Group 2), mean ± SD
[8] = single SC 5 mg/kg, with rHuPH20 approx. 3000 units SC (Group 4), individual animals, 5 mg/kg
[9] = single SC 5 mg/kg, without rHuPH20 (Group 3), individual animals, 5 mg/kg
[10] = single SC 10 mg/kg, with rHuPH20 approx. 3000 units SC (Group 2), individual animals, 10 mg/kg
[11] = single SC 10 mg/kg, without rHuPH20 (Group 1), individual animals, 10 mg/kg

Q: What does the source list for `C[C@H]1CO[C@@H]2Cn3cc(C(=O)NCc4ccc(F)cc4F)c(=O)c(O)c3C(=O)N12` [Cabotegravir, N-((2,4-Difluorophenyl)methyl)-6-hydroxy-3-methyl-5,7-dioxo-2,3,5,7,11,11a hexahydro(1,3)oxazolo(3,2-a)pyrido(1,2-d)pyrazine-8-carboxamide]?
A: Tmax ([1]; male, Sprague-Dawley, rat, whole blood, sc, 5 mg/kg, single SC 5 mg/kg, with rHuPH20 approx. 3000 units SC (Group 4), individual animals, read-out: Tmax): 14.2 days; half-life ([1]; male, Sprague-Dawley, rat, whole blood, sc, 5 mg/kg, single SC 5 mg/kg, with rHuPH20 approx. 3000 units SC (Group 4), individual animals): 10 days; AUC(0-t) [1, 4]: 2800 ± 993 µg·h/mL; Cmax ([1]; male, Sprague-Dawley, rat, whole blood, sc, 5 mg/kg, single SC 5 mg/kg, with rHuPH20 approx. 3000 units SC (Group 4), mean ± SD, read-out: Cmax): 3800 ± 1600 ng/mL; half-life [1, 4]: 7.5 days; Tmax ([1]; male, Sprague-Dawley, rat, whole blood, sc, 5 mg/kg, single SC 5 mg/kg, with rHuPH20 approx. 3000 units SC (Group 4), median, read-out: Tmax): 14.2 days; AUC(0-t) [1, 5]: 4540 µg·h/mL; Cmax ([1]; male, Sprague-Dawley, rat, whole blood, sc, 5 mg/kg, single SC 5 mg/kg, without rHuPH20 (Group 3), individual animals, read-out: Cmax): 7600 ng/mL; Tmax ([1]; male, Sprague-Dawley, rat, whole blood, sc, 5 mg/kg, single SC 5 mg/kg, without rHuPH20 (Group 3), individual animals, read-out: Tmax): 14.2 days; half-life [1, 5]: 8.33 days; AUC(0-t) [1, 6]: 4400 ± 903 µg·h/mL; Cmax ([1]; male, Sprague-Dawley, rat, whole blood, sc, 5 mg/kg, single SC 5 mg/kg, without rHuPH20 (Group 3), mean ± SD, read-out: Cmax): 7000 ± 1500 ng/mL; half-life [1, 6]: 8.33 days; Tmax ([1]; male, Sprague-Dawley, rat, whole blood, sc, 5 mg/kg, single SC 5 mg/kg, without rHuPH20 (Group 3), median, read-out: Tmax): 14.2 days; AUC(0-t) ([1]; male, Sprague-Dawley, rat, whole blood, sc, 10 mg/kg, single SC 10 mg/kg, with rHuPH20 approx. 3000 units SC (Group 2), individual animals): 6280 µg·h/mL; Cmax ([1]; male, Sprague-Dawley, rat, whole blood, sc, 10 mg/kg, single SC 10 mg/kg, with rHuPH20 approx. 3000 units SC (Group 2), individual animals, read-out: Cmax): 10000 ng/mL; Tmax ([1]; male, Sprague-Dawley, rat, whole blood, sc, 10 mg/kg, single SC 10 mg/kg, with rHuPH20 approx. 3000 units SC (Group 2), individual animals, read-out: Tmax): 14.2 days; AUC(0-t) [1, 7]: 7730 ± 1930 µg·h/mL; Cmax ([1]; male, Sprague-Dawley, rat, whole blood, sc, 10 mg/kg, single SC 10 mg/kg, with rHuPH20 approx. 3000 units SC (Group 2), mean ± SD, read-out: Cmax): 9100 ± 2100 ng/mL; half-life [1, 7]: 15 days; Tmax ([1]; male, Sprague-Dawley, rat, whole blood, sc, 10 mg/kg, single SC 10 mg/kg, with rHuPH20 approx. 3000 units SC (Group 2), median, read-out: Tmax): 14.2 days; AUC(0-t) ([1]; male, Sprague-Dawley, rat, whole blood, sc, 10 mg/kg, single SC 10 mg/kg, without rHuPH20 (Group 1), individual animals): 5640 µg·h/mL; Tmax ([1]; male, Sprague-Dawley, rat, whole blood, sc, 10 mg/kg, single SC 10 mg/kg, without rHuPH20 (Group 1), individual animals, read-out: Tmax): 14.2 days; half-life ([1]; male, Sprague-Dawley, rat, whole blood, sc, 10 mg/kg, single SC 10 mg/kg, without rHuPH20 (Group 1), mean ± SD (animal 12 excluded)): 13.8 days; AUC(0-t) ([1]; male, Sprague-Dawley, rat, whole blood, sc, 10 mg/kg, single SC 10 mg/kg, without rHuPH20 (Group 1), mean ± SD): 7320 ± 2320 µg·h/mL; Cmax ([1]; male, Sprague-Dawley, rat, whole blood, sc, 10 mg/kg, single SC 10 mg/kg, without rHuPH20 (Group 1), mean ± SD, read-out: Cmax): 8000 ± 3500 ng/mL; Tmax ([1]; male, Sprague-Dawley, rat, whole blood, sc, 10 mg/kg, single SC 10 mg/kg, without rHuPH20 (Group 1), median, read-out: Tmax): 14.2 days; AUC (0-tlast) [1, 8]: 3348 µg·h/mL and 1654 µg·h/mL and 3397 µg·h/mL; Cmax [1, 8]: 3200 ng/mL and 2600 ng/mL and 5700 ng/mL; Tmax [1, 8]: 7.08 days; T½ [1, 8]: 160 h and 140 h; AUC (0-tlast) [1, 9]: 5221 µg·h/mL and 3432 µg·h/mL; Cmax [1, 9]: 5200 ng/mL; Tmax [1, 9]: 7.08 days; T½ [1, 9]: 220 h and 170 h; AUC (0-tlast) [1, 10]: 7008 µg·h/mL and 9916 µg·h/mL; Cmax [1, 10]: 6800 ng/mL; T½ [1, 10]: 210 h and 360 h and 510 h; AUC (0-tlast) [1, 11]: 9970 µg·h/mL and 6333 µg·h/mL; Cmax [1, 11]: 7100 ng/mL and 12000 ng/mL and 5100 ng/mL; T½ [1, 11]: 430 h and 230 h and 1100^b^ h; systemic exposure with versus without administration of rHuPH20 ([1]; rats, single SC 5 and 10 mg/kg, rHuPH20 3000 U): similar; systemic exposure as defined by AUC: dose proportionality ([1]; rats, single SC, target doses of 5 and 10 mg/kg): approximately dose proportional; CAB SC Cmax versus safety threshold [2]: < 22500 ng/mL; Cmax [3]: 22500 ng/mL; potency (HIV-1 strains): subnanomolar
